Measurements reported in patent publication US20160046618A1, “Cyclopropyl Fused Thiazin-2-Amine Compounds as Beta-Secretase Inhibitors and Methods of Use” (AMGEN INC., priority 2014, published 2016).

Columns and labels:
Aβ 40 in rat CSF = test: In vivo inhibition of beta-secretase: Aβ40 reduction in rat CSF; conditions: 10 mpk, after 4 h
Method in brief: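 Male Sprague Dawley rats (200 g) dosed orally in 2% HPMC, 1% Tween80, pH 2.2, at 3, 10 or 30 mg/kg; CSF and brain taken 4 h later. Brain homogenate centrifuged at 355,000 g; Aβ40 measured by ECL sandwich ELISA (4G8 capture, Abeta40 C-terminal Fab detection), as % reduction versus vehicle controls.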

human recombinant BACE1 = human recombinant BACE1 (Homo sapiens (Human), UniProt P56817); test: In vitro enzymatic BACE1 FRET assay; assay type: biochemical; conditions: read-out: IC50 IP (μM) BACE1 enzyme
Method in brief: (§1)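 Reactions were initiated by adding 50 nM of a peptide carrying fluorophore and quencher on opposite sides of the cleavage site and ran for one hour. Tris buffer then brought the pH to neutrality, ending the reaction, and fluorescence was measured (488 nm excitation, 590 nm emission).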

Aβ 40 in rat brain = test: In vivo inhibition of beta-secretase: Aβ40 reduction in rat brain; conditions: 10 mpk, after 4 h
Method in brief: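 Rats were dosed by oral gavage at up to 100 mg/kg in 2% HPMC, 1% Tween80, pH 2.2, with vehicle-only controls. Supernatant Aβ40 was measured by ECL sandwich ELISA with biotinylated-4G8 capture and C-terminal Fab40 detection.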

Recombinant Cat D = Recombinant Cat D (Homo sapiens (Human), UniProt P07339); test: In vitro enzymatic Cathepsin D (Cat D) FRET assay; assay type: biochemical; conditions: read-out: IC50 IP (μM) CatD
Method in brief: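 Recombinant Cat D expressed in CHO cells, assayed in 0.05 M citrate pH 3.5 with 5 mM CHAPS and 10% DMSO final. Reaction started with 20 nM FRET peptide substrate, incubated one hour, then stopped by Tris buffer to neutral pH; fluorescence read at ex 500/em 580 nm.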

[1] = system: Aβ40 in conditioned medium of cells stably expressing Amyloid Precursor Protein (APP); test: In vitro BACE-1 cell-based assay (Aβ40 sandwich ELISA); conditions: read-out: IC50 IP (μM) BACE1 cell
Method in brief: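 Aβ40 in supernatants measured by time-resolved fluorescence sandwich ELISA, with pAb40 as capture and biotin-6E10 as detector antibody, each incubated at 4 °C.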

human recombinant BACE2 = human recombinant BACE2 (Homo sapiens (Human), UniProt Q9Y5Z0); test: In vitro enzymatic BACE2 FRET assay; assay type: biochemical; conditions: read-out: IC50 IP (μM) BACE2 enzyme
Method in brief: as §1

Sequence of human recombinant BACE1 (P56817 46-501): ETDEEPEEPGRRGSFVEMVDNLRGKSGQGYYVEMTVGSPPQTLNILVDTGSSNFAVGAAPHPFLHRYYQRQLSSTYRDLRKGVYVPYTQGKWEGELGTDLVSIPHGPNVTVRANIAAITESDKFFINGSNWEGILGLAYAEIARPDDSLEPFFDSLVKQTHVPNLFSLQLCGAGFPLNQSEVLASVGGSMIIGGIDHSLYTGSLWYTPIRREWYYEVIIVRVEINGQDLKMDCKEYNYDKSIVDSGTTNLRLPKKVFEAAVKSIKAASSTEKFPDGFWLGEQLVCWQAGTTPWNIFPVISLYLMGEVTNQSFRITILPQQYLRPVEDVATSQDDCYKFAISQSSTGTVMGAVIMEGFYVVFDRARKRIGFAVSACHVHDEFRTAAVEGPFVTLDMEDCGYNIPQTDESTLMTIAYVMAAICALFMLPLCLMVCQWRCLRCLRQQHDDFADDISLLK
Sequence of Recombinant Cat D (P07339 65-412): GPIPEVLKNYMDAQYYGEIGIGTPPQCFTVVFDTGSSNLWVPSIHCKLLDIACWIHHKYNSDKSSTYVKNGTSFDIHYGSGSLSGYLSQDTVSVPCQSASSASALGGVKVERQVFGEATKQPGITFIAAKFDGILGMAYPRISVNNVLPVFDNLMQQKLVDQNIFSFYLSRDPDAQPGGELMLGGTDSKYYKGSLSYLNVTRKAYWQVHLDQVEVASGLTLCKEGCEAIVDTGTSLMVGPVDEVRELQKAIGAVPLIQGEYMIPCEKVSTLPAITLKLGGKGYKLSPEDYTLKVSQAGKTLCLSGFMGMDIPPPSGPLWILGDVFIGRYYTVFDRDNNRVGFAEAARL
Sequence of human recombinant BACE2 (Q9Y5Z0 63-518): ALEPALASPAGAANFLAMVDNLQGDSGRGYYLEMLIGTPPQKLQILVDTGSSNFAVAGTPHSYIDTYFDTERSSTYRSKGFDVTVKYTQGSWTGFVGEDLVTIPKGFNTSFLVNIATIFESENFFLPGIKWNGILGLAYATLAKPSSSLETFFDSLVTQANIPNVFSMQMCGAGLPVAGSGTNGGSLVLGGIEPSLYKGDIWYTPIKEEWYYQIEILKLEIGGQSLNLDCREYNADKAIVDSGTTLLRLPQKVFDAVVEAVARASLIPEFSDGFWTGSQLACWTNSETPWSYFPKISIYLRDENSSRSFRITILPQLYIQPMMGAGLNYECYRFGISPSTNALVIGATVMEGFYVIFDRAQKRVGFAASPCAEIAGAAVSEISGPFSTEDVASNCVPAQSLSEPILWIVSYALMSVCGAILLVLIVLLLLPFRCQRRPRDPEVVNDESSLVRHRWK

IC50 (human recombinant BACE1) [µM]	IC50 (Recombinant Cat D) [µM]	IC50 [1] [µM]	IC50 (human recombinant BACE2) [µM]	SMILES	% Aβ 40 reduction in rat CSF at 10 mpk (Aβ 40 in rat CSF) [%]	% Aβ 40 reduction in rat brain at 10 mpk (Aβ 40 in rat brain) [%]
0.0086	> 400	0.0116	0.316	COC[C@]12C[C@H]1[C@@](C)(c1cc(NC(=O)c3ccc(OCC(F)(F)F)cn3)ccc1F)N=C(N)S2 [Example 698, N-(3-((1S,5S,6S)-3-amino-1-(methoxymethyl)-5-methyl-2-thia-4-azabicyclo[4.1.0]hept-3-en-5-yl)-4-fluorophenyl)-5-(2,2,2-trifluoroethoxy)-2-pyridinecarboxamide]	15	−7
0.00186	183	0.0035	0.0184	C[C@]1(c2cc(Nc3nccc4nc(OCc5ncco5)cnc34)ccc2F)N=C(N)S[C@]2(CO)[C@H]1C2(F)F [Example 705, ((1S,5S,6R)-3-amino-7,7-difluoro-5-(2-fluoro-5-((2-(1,3-oxazol-2-ylmethoxy)pyrido[3,4-b]pyrazin-5-yl)amino)phenyl)-5-methyl-2-thia-4-azabicyclo[4.1.0]hept-3-en-1-yl)methanol]	28	1
0.000636	550	0.00422	0.0185	C#CCOc1cnc2c(Nc3ccc(F)c([C@@]4(C)N=C(N)S[C@]5(CO)[C@H]4C5(F)F)c3)nccc2n1 [Example 707, ((1S,5S,6R)-3-amino-7,7-difluoro-5-(2-fluoro-5-((2-(2-propyn-1-yloxy)pyrido[3,4-b]pyrazin-5-yl)amino)phenyl)-5-methyl-2-thia-4-azabicyclo[4.1.0]hept-3-en-1-yl)methanol]	27	25
0.000969	438	0.0215	0.107	C[C@]1(c2cc(NC(=O)c3cnc(OCC(F)(F)C(F)F)cn3)ccc2F)N=C(N)S[C@]2(CO)[C@H]1C2(F)F [Example 708, N-(3-((1S,5S,6R)-3-amino-7,7-difluoro-1-(hydroxymethyl)-5-methyl-2-thia-4-azabicyclo[4.1.0]hept-3-en-5-yl)-4-fluorophenyl)-5-(2,2,3,3-tetrafluoropropoxy)-2-pyrazinecarboxamide]	13	−4
0.000782	476	0.00904	0.0516	C#CCOc1cnc2c(Nc3ccc(F)c([C@@]4(C)N=C(N)S[C@]5(C(C)(C)O)[C@H]4C5(F)F)c3)nccc2n1 [Example 712, 2-((1S,5S,6R)-3-amino-7,7-difluoro-5-(2-fluoro-5-((2-(2-propyn-1-yloxy)pyrido[3,4-b]pyrazin-5-yl)amino)phenyl)-5-methyl-2-thia-4-azabicyclo[4.1.0]hept-3-en-1-yl)-2-propanol]	52	32

Continued, molecule first:

SMILES	IC50 (human recombinant BACE1) [µM]	IC50 (Recombinant Cat D) [µM]	IC50 [1] [µM]	IC50 (human recombinant BACE2) [µM]	% Aβ 40 reduction in rat CSF at 10 mpk (Aβ 40 in rat CSF) [%]	% Aβ 40 reduction in rat brain at 10 mpk (Aβ 40 in rat brain) [%]
COC[C@]12C[C@H]1[C@@](C)(c1cc(Nc3nccc4nc(OCc5cocn5)cnc34)cc(F)c1F)N=C(N)S2 [Example 628, N-(3-((1S,5S,6S)-3-amino-1-(methoxymethyl)-5-methyl-2-thia-4-azabicyclo[4.1.0]hept-3-en-5-yl)-4,5-difluorophenyl)-2-(1,3-oxazol-4-ylmethoxy)pyrido[3,4-b]pyrazin-5-amine]	0.00324	443	0.0148	0.0383	59	50
COC[C@]12C[C@H]1[C@@](C)(c1cc(Nc3nccc4nc(OCc5ncco5)cnc34)cc(F)c1F)N=C(N)S2 [Example 631, N-(3-((1S,5S,6S)-3-amino-1-(methoxymethyl)-5-methyl-2-thia-4-azabicyclo[4.1.0]hept-3-en-5-yl)-4,5-difluorophenyl)-2-(1,3-oxazol-2-ylmethoxy)pyrido[3,4-b]pyrazin-5-amine]	0.00173	475	0.00325	0.055	52	47
Cc1cc(OCc2ncco2)cnc1C(=O)Nc1cc(F)c(F)c([C@@]2(C)N=C(N)S[C@@]3(CF)C[C@H]32)c1 [Example 645, N-(3-((1S,5S,6S)-3-amino-1-(fluoromethyl)-5-methyl-2-thia-4-azabicyclo[4.1.0]hept-3-en-5-yl)-4,5-difluorophenyl)-3-methyl-5-(1,3-oxazol-2-ylmethoxy)-2-pyridinecarboxamide]	0.00337	477	0.0246	0.143	53	34
C#CCOc1cnc2c(Nc3cnc(F)c([C@@]4(C)N=C(N)S[C@@]5([C@@H](O)C(F)(F)F)C[C@H]54)c3)nccc2n1 [Example 660, (1S)-1-((1S,5S,6S)-3-amino-5-(2-fluoro-5-((2-(2-propyn-1-yloxy)pyrido[3,4-b]pyrazin-5-yl)amino)-3-pyridinyl)-5-methyl-2-thia-4-azabicyclo[4.1.0]hept-3-en-1-yl)-2,2,2-trifluoroethanol]	0.00133	554	0.00345	0.0235	38	26
C#CCOc1cnc2c(Nc3cnc(F)c([C@@]4(C)N=C(N)S[C@@]5(CO)C[C@H]54)c3)nccc2n1 [Example 662, ((1S,5S,6S)-3-amino-5-(2-fluoro-5-((2-(2-propyn-1-yloxy)pyrido[3,4-b]pyrazin-5-yl)amino)-3-pyridinyl)-5-methyl-2-thia-4-azabicyclo[4.1.0]hept-3-en-1-yl)methanol]	0.000437	1060	0.00049	0.0199	40	37
Cc1cc(OCC(F)(F)F)cnc1C(=O)Nc1cc(F)c(F)c([C@@]2(C)N=C(N)S[C@@]3(CF)C[C@H]32)c1 [Example 678, N-(3-((1S,5S,6S)-3-amino-1-(fluoromethyl)-5-methyl-2-thia-4-azabicyclo[4.1.0]hept-3-en-5-yl)-4,5-difluorophenyl)-3-methyl-5-(2,2,2-trifluoroethoxy)-2-pyridinecarboxamide]	0.00612	747	0.0286	0.579	40	11
Cc1cc(OCC(F)(F)F)cnc1C(=O)Nc1cc(F)c(F)c([C@@]2(C)N=C(N)S[C@@]3(C(F)F)C[C@@H]23)c1 [Example 679, N-(3-((1S,5S,6S)-3-amino-1-(difluoromethyl)-5-methyl-2-thia-4-azabicyclo[4.1.0]hept-3-en-5-yl)-4,5-difluorophenyl)-3-methyl-5-(2,2,2-trifluoroethoxy)-2-pyridinecarboxamide]	0.00435	375	0.0495	0.746	20	6
Cc1cc(OCC(F)(F)F)cnc1C(=O)Nc1ccc(F)c([C@@]2(C)N=C(N)S[C@@]3(C(F)F)C[C@@H]23)c1 [Example 680, N-(3-((1S,5S,6S)-3-amino-1-(difluoromethyl)-5-methyl-2-thia-4-azabicyclo[4.1.0]hept-3-en-5-yl)-4-fluorophenyl)-3-methyl-5-(2,2,2-trifluoroethoxy)-2-pyridinecarboxamide]	0.0139	1110	0.0153	0.846	30	8
Cc1cc(OCC(F)(F)F)cnc1C(=O)Nc1ccc(F)c([C@@]2(C)N=C(N)S[C@@]3(CF)C[C@H]32)c1 [Example 689, N-(3-((1S,5S,6S)-3-amino-1-(fluoromethyl)-5-methyl-2-thia-4-azabicyclo[4.1.0]hept-3-en-5-yl)-4-fluorophenyl)-3-methyl-5-(2,2,2-trifluoroethoxy)-2-pyridinecarboxamide]	0.0105	> 400	0.0464	0.819	38	10
C[C@]1(c2cc(NC(=O)c3ccc(OCC(F)(F)F)cn3)ccc2F)N=C(N)S[C@@]2(CF)C[C@H]21 [Example 697, N-(3-((1S,5S,6S)-3-amino-1-(fluoromethyl)-5-methyl-2-thia-4-azabicyclo[4.1.0]hept-3-en-5-yl)-4-fluorophenyl)-5-(2,2,2-trifluoroethoxy)-2-pyridinecarboxamide]	0.00629	> 400	0.0315	0.338	35	13
